pIC50: −log10 of the molar value.
Assays:
HBsAg = HBsAg assay (secreted HBsAg by CLIA in HepG2.2.15 cells); assay type: cell-based, hepatitis B virus (HBV); settings: Hepatitis B virus, HepG2.2.15, 96 h
In short: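 HepG2.2.15 cells were exposed to a five-fold compound dilution series (0.5% DMSO final) for four days. Secreted HBsAg in supernatant quantified by chemiluminescence immunoassay; IC50 extrapolated from dose-response curves.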

[1] = Cytotoxicity CC50 (CellTiter-Glo); assay type: cell-based; settings: human; HepG2.2.15 cells, four days
Protocol: HepG2.2.15 cells were seeded into 96-well white plate at 5000 cells/well and treated with serially diluted compounds. The plates were incubated in incubator with 5% CO2 at 37° C. for four days. The plate was taken out of incubator and adapted to room temperature for 30 minutes, followed by adding 25 μl CellTiter-Glo (Promega) reagent into each well and votexed at room temperature before being measured for luminance using spectrometer (Tecan Infinite® F200). The CC50 of each compound was defined as the compound concentration at which the treated well's cell viability is 50% compared to that of the DMSO treated well.

Structure (SMILES)	pIC50 (HBsAg)	CC50 at 4 days [1] [µM]
COc1cc2c(cc1-c1ccc(N3CCC3)nc1)CC(C(C)(C)C)n1cc(C(=O)O)c(=O)cc1-2 (stereo not shown) [Example 50, 9-(6-(azetidin-1-yl)pyridin-3-yl)-6-(tert-butyl)-10-methoxy-2-oxo-6,7-dihydro-2H-pyrido[2,1-a]isoquinoline-3-carboxylic acid]	9.30	50 to 100
COc1cc2c(cc1-c1ccc(N3CCC(O)CC3)nc1)CC(C(C)(C)C)n1cc(C(=O)O)c(=O)cc1-2 (stereo not shown) [Example 51, 6-(tert-butyl)-9-(6-(4-hydroxypiperidin-1-yl)pyridin-3-yl)-10-methoxy-2-oxo-6,7-dihydro-2H-pyrido[2,1-a]isoquinoline-3-carboxylic acid]	9.10	> 100
CNc1ncc(-c2cc3c(cc2OC)-c2cc(=O)c(C(=O)O)cn2C(C(C)(C)C)C3)cn1 (stereo not shown) [Example 60, 6-(tert-butyl)-10-methoxy-9-(2-(methylamino)pyrimidin-5-yl)-2-oxo-6,7-dihydro-2H-pyrido[2,1-a]isoquinoline-3-carboxylic acid]	10.00	50 to 100
CCN1CCN(c2ncc(-c3cc4c(cc3OC)-c3cc(=O)c(C(=O)O)cn3C(C(C)(C)C)C4)cn2)CC1 (stereo not shown) [Example 63, 6-(tert-butyl)-9-(2-(4-ethylpiperazin-1-yl)pyrimidin-5-yl)-10-methoxy-2-oxo-6,7-dihydro-2H-pyrido[2,1-a]isoquinoline-3-carboxylic acid]	7.57	50 to 100
COc1cc2c(cc1-c1cnc(N3CCC3)nc1)CC(C(C)(C)C)n1cc(C(=O)O)c(=O)cc1-2 (stereo not shown) [Example 69, 9-(2-(azetidin-1-yl)pyrimidin-5-yl)-6-(tert-butyl)-10-methoxy-2-oxo-6,7-dihydro-2H-pyrido[2,1-a]isoquinoline-3-carboxylic acid]	8.30	50 to 100
CCOC(=O)c1cn2c(cc1=O)-c1cc(OC)c(-c3ccc(=O)n(C(C)(C)C(=O)OCC)c3)cc1CC2C(C)(C)C (stereo not shown) [Example 70, Ethyl 6-(tert-butyl)-9-(1-(1-ethoxy-2-methyl-1-oxoprop-2-yl)-6-oxo-1,6-dihydropyridin-3-yl)-10-methoxy-2-oxo-6,7-dihydro-2H-pyrido[2,1-a]isoquinoline-3-carboxylate]	7.36	50 to 100
CCOC(=O)Cn1cc(-c2cc3c(cc2OC)-c2cc(=O)c(C(=O)OCC)cn2C(C(C)(C)C)C3)ccc1=O (stereo not shown) [Example 71, Ethyl 6-(tert-butyl)-9-(1-(2-ethoxy-2-oxoethyl)-6-oxo-1,6-dihydropyridin-3-yl)-10-methoxy-2-oxo-6,7-dihydro-2H-pyrido[2,1-a]isoquinoline-3-carboxylate]	6.72	> 100
CCOC(=O)CCn1cc(-c2cc3c(cc2OC)-c2cc(=O)c(C(=O)OCC)cn2C(C(C)(C)C)C3)ccc1=O (stereo not shown) [Example 72, Ethyl 6-(tert-butyl)-9-(1-(3-ethoxy-3-oxopropyl)-6-oxo-1,6-dihydropyridin-3-yl)-10-methoxy-2-oxo-6,7-dihydro-2H-pyrido[2,1-a]isoquinoline-3-carboxylate]	6.25	50 to 100
COc1cc2c(cc1-c1cnc(N3CCC(C(=O)O)CC3)nc1)CC(C(C)(C)C)n1cc(C(=O)O)c(=O)cc1-2 (stereo not shown) [Example 73, 6-(tert-butyl)-9-(2-(4-carboxypiperidin-1-yl)pyrimidin-5-yl)-10-methoxy-2-oxo-6,7-dihydro-2H-pyrido[2,1-a]isoquinoline-3-carboxylic acid]	7.17	> 100
CCOC(=O)c1cn2c(cc1=O)-c1cc(OC)c(-c3ccc(=O)n(C(C)C(=O)OCC)c3)cc1CC2C(C)(C)C (stereo not shown) [Example 74, Ethyl 6-(tert-butyl)-9-(1-(1-ethoxy-1-oxoprop-2-yl)-6-oxo-1,6-dihydro-pyridin-3-yl)-10-methoxy-2-oxo-6,7-dihydro-2H-pyrido[2,1-a]isoquinoline-3-carboxylate]	6.89	50 to 100
CCOC(=O)CCCn1cc(-c2cc3c(cc2OC)-c2cc(=O)c(C(=O)OCC)cn2C(C(C)(C)C)C3)ccc1=O (stereo not shown) [Example 75, Ethyl 6-(tert-butyl)-9-(1-(4-ethoxy-4-oxobutyl)-6-oxo-1,6-dihydropyridin-3-yl)-10-methoxy-2-oxo-6,7-dihydro-2H-pyrido[2,1-a]isoquinoline-3-carboxylate]	6.33	50 to 100
